Measurements reported in ChEMBL document CHEMBL4325881, “Facile synthesis of 2-aryl 5-hydroxy benzo[d]oxazoles and their in vitro anti-proliferative effects on various cancer cell lines” (Bioorg Med Chem Lett, 2018).
The source made the active and inactive calls. The rule behind the calls is not given here.

Key:
HepG2 [1] = assay: Induction of apoptosis in human HepG2 cells assessed as late apoptotic cells at 1 uM after 48 hrs by annexin V-FITC/propidium iodide staining-based flow cytometry analysis (reference value: 0.26%); format: functional
HepG2 [2] = assay: Induction of apoptosis in human HepG2 cells assessed as mitochondrial depolarized cells level at 2.5 uM after 48 hrs by JC-1 staining based flow cytometric method (reference value: […]); format: functional
HepG2 [3] = assay: Induction of apoptosis in human HepG2 cells assessed as apoptotic body formation after 48 hrs by acridine orange/ethidium bromide staining-based fluorescence microscopic analysis; format: functional, cell-based
HepG2 [4] = assay: Cytotoxicity against human HepG2 cells assessed as reduction in cell viability after 48 hrs by MTT assay; format: functional, cell-based; conditions: HepG2, 48 h
HepG2 [5] = assay: Induction of apoptosis in human HepG2 cells assessed as mitochondrial depolarized cells level at 1 uM after 48 hrs by JC-1 staining based flow cytometric method (reference value: […]); format: functional
HepG2 [6] = assay: Induction of apoptosis in human HepG2 cells assessed as mitochondrial polarized cells level at 2.5 uM after 48 hrs by JC-1 staining based flow cytometric method (reference value: 93.02%); format: functional
HepG2 [7] = assay: Induction of apoptosis in human HepG2 cells after 48 hrs by annexin V-FITC/propidium iodide staining-based flow cytometry analysis; format: functional, cell-based
HepG2 [8] = assay: Cell cycle arrest in human HepG2 cells assessed as accumulation at G0/G1 phase at 2.5 uM after 24 hrs by propidium iodide staining based flow cytometric analysis (reference value: 49.93%); format: functional
HepG2 [9] = assay: Induction of apoptosis in human HepG2 cells assessed as condensed nuclei at 0.5 to 2.5 uM after 48 hrs by DAPI staining-based fluorescence microscopic analysis; format: functional, cell-based
HepG2 [10] = assay: Cell cycle arrest in human HepG2 cells assessed as accumulation at sub-G1 phase at 1 uM after 24 hrs by propidium iodide staining based flow cytometric analysis (reference value: 1.73%); format: functional
HepG2 [11] = assay: Cell cycle arrest in human HepG2 cells assessed as accumulation at G2/M phase at 0.5 uM after 24 hrs by propidium iodide staining based flow cytometric analysis (reference value: 28.79%); format: functional
HepG2 [12] = assay: Induction of apoptosis in human HepG2 cells assessed as viable cells at 2.5 uM after 48 hrs by annexin V-FITC/propidium iodide staining-based flow cytometry analysis (reference value: 98.14%); format: functional; conditions: HepG2, 48 h, read-out: Activity
HepG2 [13] = assay: Induction of ROS accumulation in human HepG2 cells after 48 hrs by DCF-DA staining based fluorescence microscopic analysis; format: functional, cell-based
HepG2 [14] = assay: Cell cycle arrest in human HepG2 cells assessed as accumulation at sub-G1 phase at 0.5 uM after 24 hrs by propidium iodide staining based flow cytometric analysis (reference value: 1.73%); format: functional
HaCaT = assay: Cytotoxicity against human HaCaT cells assessed as reduction in cell viability after 48 hrs by MTT assay; format: cell-based
HepG2 [15] = assay: Induction of apoptosis in human HepG2 cells assessed as necrotic cells at 0.5 uM after 48 hrs by annexin V-FITC/propidium iodide staining-based flow cytometry analysis (reference value: 0.62%); format: functional
HeLa = assay: Cytotoxicity against human HeLa cells assessed as reduction in cell viability after 48 hrs by MTT assay; format: functional, cell-based
HepG2 [16] = assay: Induction of apoptosis in human HepG2 cells assessed as reduction in number of viable cells at 0.5 to 2.5 uM after 48 hrs by inverted phase contrast microscopic analysis; format: functional, cell-based
HepG2 [17] = assay: Induction of apoptosis in human HepG2 cells assessed as early apoptotic cells at 1 uM after 48 hrs by annexin V-FITC/propidium iodide staining-based flow cytometry analysis (reference value: 0.98%); format: functional
HepG2 [18] = assay: Induction of apoptosis in human HepG2 cells assessed as necrotic cells at 2.5 uM after 48 hrs by annexin V-FITC/propidium iodide staining-based flow cytometry analysis (reference value: 0.62%); format: functional
HepG2 [19] = assay: Induction of apoptosis in human HepG2 cells assessed as cell shrinkage at 0.5 to 2.5 uM after 48 hrs by inverted phase contrast microscopic analysis; format: functional, cell-based
HepG2 [20] = assay: Induction of apoptosis in human HepG2 cells assessed as chromatin condensation after 48 hrs by acridine orange/ethidium bromide staining-based fluorescence microscopic analysis; format: functional, cell-based
HepG2 [21] = assay: Cell cycle arrest in human HepG2 cells assessed as accumulation at sub-G1 phase at 2.5 uM after 24 hrs by propidium iodide staining based flow cytometric analysis (reference value: 1.73%); format: functional
HepG2 [22] = assay: Induction of apoptosis in human HepG2 cells assessed as viable cells at 0.5 uM after 48 hrs by annexin V-FITC/propidium iodide staining-based flow cytometry analysis (reference value: 98.14%); format: functional; conditions: HepG2, 48 h, read-out: Activity
HepG2 [23] = assay: Induction of apoptosis in human HepG2 cells assessed as cell shrinkage after 48 hrs by acridine orange/ethidium bromide staining-based fluorescence microscopic analysis; format: functional
HepG2 [24] = assay: Induction of apoptosis in human HepG2 cells assessed as late apoptotic cells at 2.5 uM after 48 hrs by annexin V-FITC/propidium iodide staining-based flow cytometry analysis (reference value: 0.26%); format: functional
[25] = Cytotoxicity against human […] cells assessed as reduction in cell viability after 48 hrs by MTT assay; format: functional, cell-based
MDA-MB-231 = assay: Cytotoxicity against human MDA-MB-231 cells assessed as reduction in cell viability after 48 hrs by MTT assay; format: functional, cell-based; conditions: MDA-MB-231, 48 h
HepG2 [26] = assay: Induction of apoptosis in human HepG2 cells assessed as membrane blebbing after 48 hrs by acridine orange/ethidium bromide staining-based fluorescence microscopic analysis; format: functional, cell-based
HepG2 [27] = assay: Induction of apoptosis in human HepG2 cells assessed as necrotic cells at 1 uM after 48 hrs by annexin V-FITC/propidium iodide staining-based flow cytometry analysis (reference value: 0.62%); format: functional
HepG2 [28] = assay: Cell cycle arrest in human HepG2 cells assessed as accumulation at G2/M phase at 2.5 uM after 24 hrs by propidium iodide staining based flow cytometric analysis (reference value: 28.79%); format: functional
HepG2 [29] = assay: Induction of apoptosis in human HepG2 cells assessed as horse-shoe shaped nuclei at 0.5 to 2.5 uM after 48 hrs by DAPI staining-based fluorescence microscopic analysis; format: functional, cell-based
HepG2 [30] = assay: Induction of apoptosis in human HepG2 cells assessed as mitochondrial polarized cells level at 0.5 uM after 48 hrs by JC-1 staining based flow cytometric method (reference value: 93.02%); format: functional
HepG2 [31] = assay: Cell cycle arrest in human HepG2 cells assessed as accumulation at S phase at 0.5 uM after 24 hrs by propidium iodide staining based flow cytometric analysis (reference value: 7.57%); format: functional
HepG2 [32] = assay: Cell cycle arrest in human HepG2 cells assessed as accumulation at S phase at 2.5 uM after 24 hrs by propidium iodide staining based flow cytometric analysis (reference value: 7.57%); format: functional
A549 = assay: Cytotoxicity against human A549 cells assessed as reduction in cell viability after 48 hrs by MTT assay; format: functional, cell-based; conditions: A549, 48 h
HepG2 [33] = assay: Induction of apoptosis in human HepG2 cells assessed as viable cells at 1 uM after 48 hrs by annexin V-FITC/propidium iodide staining-based flow cytometry analysis (reference value: 98.14%); format: functional; conditions: HepG2, 48 h, read-out: Activity

**Q.** Which results are given for O=Cc1c(O)ccc2oc(-c3cccc(Cl)c3)nc12?
**A.** Activity (HepG2 [1]): 0.55%; Activity (HepG2 [2]): 71.49%; Activity (HepG2 [3]): Dose-dependent effect; IC50 (HepG2 [4]): 810 nM; Activity (HepG2 [5]): 25.87%; Activity (HepG2 [6]): 29.19%; Activity (HepG2 [7]): Dose-dependent effect; Activity (HepG2 [8]): 45.52%; Activity (HepG2 [9]): Active; Activity (HepG2 [10]): 5.64%; Activity (HepG2 [11]): 23.05%; viability at 2.5 µM (HepG2 [12]): 40.2%; Activity (HepG2 [13]): Dose-dependent effect; Activity (HepG2 [14]): 2.42%; IC50 (HaCaT): 17.8 µM; Activity (HepG2 [15]): 2.42%; IC50 (HeLa): 2180 nM; Activity (HepG2 [16]): Active; Activity (HepG2 [17]): 34.2%; Activity (HepG2 [18]): 2.01%; Activity (HepG2 [19]): Active; Activity (HepG2 [20]): Dose-dependent effect; Activity (HepG2 [21]): 13.2%; viability at 0.5 µM (HepG2 [22]): 83.3%; Activity (HepG2 [23]): Dose-dependent effect; Activity (HepG2 [24]): 1.64%; IC50 [25]: 980 nM; IC50 (MDA-MB-231): 1330 nM; Activity (HepG2 [26]): Dose-dependent effect; Activity (HepG2 [27]): 1.84%; Activity (HepG2 [28]): 22.57%; Activity (HepG2 [29]): Active; Activity (HepG2 [30]): 85.46%; Activity (HepG2 [31]): 6.61%; Activity (HepG2 [32]): 8.32%; IC50 (A549): 1870 nM; viability at 1 µM (HepG2 [33]): 63.4%
